Assay results as given in publication PMC11314561, “Design and Synthesis of Novel Aminoindazole-pyrrolo[2,3-b]pyridine Inhibitors of IKKα That Selectively Perturb Cellular Non-Canonical NF-κB Signalling” (Molecules, 2024).

What was measured:
Test in all cases: kinase panel
Assay type in all cases: biochemical
[1] = biological target: ACK1(h) (Homo sapiens, UniProt Q07912)
Procedure, shortened: (§1)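 Percentage inhibition was recorded for each compound against a broad kinase panel of 231 enzymes. Because of its close structural resemblance to another analogue, one compound was screened against 98 chosen kinases.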

[2] = biological target: Aurora-B(h) (Homo sapiens, UniProt Q96GD4)
Procedure, shortened: as §1

[3] = biological target: CDK5/p35(h) (Homo sapiens, UniProt Q00535)
Procedure, shortened: as §1

[4] = biological target: CDK6/cyclinD3(h) (Homo sapiens, UniProt Q00534)
Procedure, shortened: as §1

[5] = biological target: CK1δ(h) (Homo sapiens, UniProt P48730)
Procedure, shortened: as §1

[6] = biological target: JAK2(h) (Homo sapiens, UniProt O60674)
Procedure, shortened: as §1

[7] = biological target: T1, MKK7β(h) (Homo sapiens, UniProt O14733)
T1 sequence (O14733 1-419): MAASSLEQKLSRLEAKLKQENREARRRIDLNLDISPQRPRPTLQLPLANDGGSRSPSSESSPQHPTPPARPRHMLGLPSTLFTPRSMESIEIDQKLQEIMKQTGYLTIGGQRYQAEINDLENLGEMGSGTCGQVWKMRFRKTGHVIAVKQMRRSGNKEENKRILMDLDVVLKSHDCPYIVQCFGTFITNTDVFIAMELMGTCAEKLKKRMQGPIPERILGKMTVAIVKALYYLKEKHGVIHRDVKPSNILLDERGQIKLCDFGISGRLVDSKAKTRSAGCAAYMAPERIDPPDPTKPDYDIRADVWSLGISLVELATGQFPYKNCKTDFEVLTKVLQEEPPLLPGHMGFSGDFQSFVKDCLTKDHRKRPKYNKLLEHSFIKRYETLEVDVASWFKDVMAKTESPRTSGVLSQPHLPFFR
Procedure, shortened: as §1

[8] = biological target: Met(h) (Homo sapiens, UniProt P08581)
Procedure, shortened: as §1

[9] = biological target: T2, PRAK(h) (Homo sapiens, UniProt Q8IW41)
T2 sequence (Q8IW41 1-473): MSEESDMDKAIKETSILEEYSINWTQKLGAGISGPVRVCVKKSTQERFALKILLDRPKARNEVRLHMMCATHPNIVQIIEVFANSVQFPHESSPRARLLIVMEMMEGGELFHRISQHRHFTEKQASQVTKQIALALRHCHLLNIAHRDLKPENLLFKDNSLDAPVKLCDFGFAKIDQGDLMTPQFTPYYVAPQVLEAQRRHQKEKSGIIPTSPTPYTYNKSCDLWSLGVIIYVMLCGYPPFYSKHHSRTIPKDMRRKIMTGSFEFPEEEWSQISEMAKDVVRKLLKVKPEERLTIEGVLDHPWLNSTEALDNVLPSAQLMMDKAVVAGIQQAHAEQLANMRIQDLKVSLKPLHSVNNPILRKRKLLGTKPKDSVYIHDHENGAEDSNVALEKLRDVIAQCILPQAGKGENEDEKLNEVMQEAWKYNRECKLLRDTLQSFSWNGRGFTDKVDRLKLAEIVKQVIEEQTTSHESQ
Procedure, shortened: as §1

[10] = biological target: PRK2(h) (Homo sapiens, UniProt Q16513)
Procedure, shortened: as §1

[11] = biological target: T3, SGK(h) (Homo sapiens, UniProt O00141)
T3 sequence (O00141 1-431): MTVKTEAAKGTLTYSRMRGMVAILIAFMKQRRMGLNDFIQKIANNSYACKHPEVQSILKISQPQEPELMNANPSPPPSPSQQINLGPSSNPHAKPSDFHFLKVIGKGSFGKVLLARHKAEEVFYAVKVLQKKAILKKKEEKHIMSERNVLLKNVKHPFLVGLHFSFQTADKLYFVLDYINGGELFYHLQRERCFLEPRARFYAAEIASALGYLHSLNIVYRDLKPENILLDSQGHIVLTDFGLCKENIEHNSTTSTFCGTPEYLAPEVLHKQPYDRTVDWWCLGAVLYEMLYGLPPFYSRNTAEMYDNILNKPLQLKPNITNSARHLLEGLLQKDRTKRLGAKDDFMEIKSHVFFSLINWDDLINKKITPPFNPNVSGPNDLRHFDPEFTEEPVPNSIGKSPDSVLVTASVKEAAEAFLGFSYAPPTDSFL
Procedure, shortened: as §1

[12] = biological target: c-RAF(h) (Homo sapiens, UniProt P04049)
Procedure, shortened: as §1

Met(h), sequence (P08581 25-1390): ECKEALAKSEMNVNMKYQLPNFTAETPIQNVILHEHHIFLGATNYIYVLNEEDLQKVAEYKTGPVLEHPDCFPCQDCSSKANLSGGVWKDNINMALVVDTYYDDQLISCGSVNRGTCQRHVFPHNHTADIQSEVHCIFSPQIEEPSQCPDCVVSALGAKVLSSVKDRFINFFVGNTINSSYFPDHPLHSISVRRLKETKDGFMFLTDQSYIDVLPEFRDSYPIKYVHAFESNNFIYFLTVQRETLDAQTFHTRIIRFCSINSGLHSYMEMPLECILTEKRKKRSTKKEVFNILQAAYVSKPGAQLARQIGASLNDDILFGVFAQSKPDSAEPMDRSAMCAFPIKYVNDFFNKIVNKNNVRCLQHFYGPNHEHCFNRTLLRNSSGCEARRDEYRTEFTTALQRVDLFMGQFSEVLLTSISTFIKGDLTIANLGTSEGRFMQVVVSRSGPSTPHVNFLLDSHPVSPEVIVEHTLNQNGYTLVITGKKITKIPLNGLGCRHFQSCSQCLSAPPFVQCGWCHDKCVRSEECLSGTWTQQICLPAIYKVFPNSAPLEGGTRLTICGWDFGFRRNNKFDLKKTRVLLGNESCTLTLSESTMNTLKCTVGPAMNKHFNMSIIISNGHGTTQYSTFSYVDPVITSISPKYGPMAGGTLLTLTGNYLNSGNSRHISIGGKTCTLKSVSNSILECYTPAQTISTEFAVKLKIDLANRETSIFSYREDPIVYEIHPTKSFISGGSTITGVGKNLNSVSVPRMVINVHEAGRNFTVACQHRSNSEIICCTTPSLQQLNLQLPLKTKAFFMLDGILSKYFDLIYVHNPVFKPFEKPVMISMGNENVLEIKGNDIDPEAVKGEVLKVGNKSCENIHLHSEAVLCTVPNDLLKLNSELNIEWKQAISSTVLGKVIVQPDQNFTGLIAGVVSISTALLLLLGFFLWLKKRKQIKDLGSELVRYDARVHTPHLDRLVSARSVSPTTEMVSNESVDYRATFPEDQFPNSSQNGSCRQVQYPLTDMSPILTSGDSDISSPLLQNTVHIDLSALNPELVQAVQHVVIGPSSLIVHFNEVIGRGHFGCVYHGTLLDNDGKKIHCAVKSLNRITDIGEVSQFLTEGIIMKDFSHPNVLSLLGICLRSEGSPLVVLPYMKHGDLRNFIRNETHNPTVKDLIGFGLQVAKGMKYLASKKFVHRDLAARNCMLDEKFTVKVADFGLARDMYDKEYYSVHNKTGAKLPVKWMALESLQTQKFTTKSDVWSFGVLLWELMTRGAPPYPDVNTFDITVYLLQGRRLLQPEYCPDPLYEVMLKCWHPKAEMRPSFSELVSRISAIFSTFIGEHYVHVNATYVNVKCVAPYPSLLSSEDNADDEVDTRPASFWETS
ACK1(h), sequence (Q07912 whole entry): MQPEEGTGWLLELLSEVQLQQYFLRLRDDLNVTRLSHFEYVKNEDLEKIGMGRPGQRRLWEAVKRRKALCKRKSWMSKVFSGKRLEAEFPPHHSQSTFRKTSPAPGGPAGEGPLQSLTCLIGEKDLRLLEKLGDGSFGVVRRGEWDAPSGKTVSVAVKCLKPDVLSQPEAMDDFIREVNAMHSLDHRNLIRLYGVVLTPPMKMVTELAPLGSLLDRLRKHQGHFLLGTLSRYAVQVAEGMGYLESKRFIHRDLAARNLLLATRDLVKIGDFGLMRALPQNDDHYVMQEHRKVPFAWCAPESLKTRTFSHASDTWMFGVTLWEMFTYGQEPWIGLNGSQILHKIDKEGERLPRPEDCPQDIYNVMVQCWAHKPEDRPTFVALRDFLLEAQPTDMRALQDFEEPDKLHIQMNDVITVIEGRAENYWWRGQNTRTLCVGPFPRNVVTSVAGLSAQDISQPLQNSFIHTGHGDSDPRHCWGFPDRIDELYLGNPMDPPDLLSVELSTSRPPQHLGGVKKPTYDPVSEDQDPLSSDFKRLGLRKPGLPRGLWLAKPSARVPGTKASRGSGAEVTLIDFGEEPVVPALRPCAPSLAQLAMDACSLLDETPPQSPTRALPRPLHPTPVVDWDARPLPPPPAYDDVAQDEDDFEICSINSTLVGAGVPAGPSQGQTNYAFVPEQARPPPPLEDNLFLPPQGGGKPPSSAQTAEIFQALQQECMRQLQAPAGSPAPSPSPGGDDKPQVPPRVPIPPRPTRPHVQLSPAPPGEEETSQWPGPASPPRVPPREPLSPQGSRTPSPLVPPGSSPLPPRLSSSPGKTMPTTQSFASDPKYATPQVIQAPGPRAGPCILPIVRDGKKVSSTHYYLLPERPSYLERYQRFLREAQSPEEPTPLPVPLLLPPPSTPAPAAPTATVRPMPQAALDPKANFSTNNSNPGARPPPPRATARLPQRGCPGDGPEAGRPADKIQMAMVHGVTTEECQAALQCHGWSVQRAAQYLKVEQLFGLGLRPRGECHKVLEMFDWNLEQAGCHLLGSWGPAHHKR
CDK6/cyclinD3(h), sequence (Q00534 whole entry): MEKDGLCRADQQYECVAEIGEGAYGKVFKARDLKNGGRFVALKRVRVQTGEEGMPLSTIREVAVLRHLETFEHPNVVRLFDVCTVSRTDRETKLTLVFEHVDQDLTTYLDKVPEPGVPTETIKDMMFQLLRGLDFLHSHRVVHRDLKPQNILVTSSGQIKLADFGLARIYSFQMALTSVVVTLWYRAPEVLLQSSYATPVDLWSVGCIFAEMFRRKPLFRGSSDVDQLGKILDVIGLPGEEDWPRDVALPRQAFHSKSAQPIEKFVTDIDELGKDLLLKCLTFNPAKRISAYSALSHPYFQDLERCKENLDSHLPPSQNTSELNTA
CDK6/cyclinD3(h), sequence (P30281 whole entry partner): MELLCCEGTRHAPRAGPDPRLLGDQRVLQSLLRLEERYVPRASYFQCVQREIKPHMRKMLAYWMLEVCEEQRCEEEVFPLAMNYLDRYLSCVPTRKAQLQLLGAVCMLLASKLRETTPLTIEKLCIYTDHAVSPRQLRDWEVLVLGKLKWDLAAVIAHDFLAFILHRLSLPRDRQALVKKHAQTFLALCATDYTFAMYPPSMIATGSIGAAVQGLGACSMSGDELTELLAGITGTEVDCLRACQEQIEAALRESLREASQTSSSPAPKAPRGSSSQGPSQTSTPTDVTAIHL
PRK2(h), sequence (Q16513 whole entry): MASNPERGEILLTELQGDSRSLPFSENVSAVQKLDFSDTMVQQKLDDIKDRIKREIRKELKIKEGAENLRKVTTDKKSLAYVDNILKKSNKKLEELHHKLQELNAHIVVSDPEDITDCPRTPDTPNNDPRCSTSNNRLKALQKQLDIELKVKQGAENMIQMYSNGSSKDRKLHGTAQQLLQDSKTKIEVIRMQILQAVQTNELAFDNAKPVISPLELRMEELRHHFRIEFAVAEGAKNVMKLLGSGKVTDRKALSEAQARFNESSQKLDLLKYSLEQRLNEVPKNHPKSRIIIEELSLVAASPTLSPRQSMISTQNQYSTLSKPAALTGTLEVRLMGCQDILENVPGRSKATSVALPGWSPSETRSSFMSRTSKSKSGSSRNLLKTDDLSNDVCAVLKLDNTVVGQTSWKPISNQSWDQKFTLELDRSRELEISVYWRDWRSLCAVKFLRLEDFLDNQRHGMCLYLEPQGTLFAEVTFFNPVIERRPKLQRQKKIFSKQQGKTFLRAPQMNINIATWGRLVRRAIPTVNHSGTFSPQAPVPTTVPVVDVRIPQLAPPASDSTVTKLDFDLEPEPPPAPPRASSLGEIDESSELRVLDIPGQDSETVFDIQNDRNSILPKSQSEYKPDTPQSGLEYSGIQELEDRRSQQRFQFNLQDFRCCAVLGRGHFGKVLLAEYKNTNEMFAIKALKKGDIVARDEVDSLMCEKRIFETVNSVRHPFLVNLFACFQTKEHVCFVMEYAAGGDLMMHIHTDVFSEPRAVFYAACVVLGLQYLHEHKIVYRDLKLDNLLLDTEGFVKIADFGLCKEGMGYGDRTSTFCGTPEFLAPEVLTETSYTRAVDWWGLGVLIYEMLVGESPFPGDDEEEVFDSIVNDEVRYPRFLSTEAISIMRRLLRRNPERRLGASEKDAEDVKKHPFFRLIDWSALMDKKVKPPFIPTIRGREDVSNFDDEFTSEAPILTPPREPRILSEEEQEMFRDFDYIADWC
CK1δ(h), sequence (P48730 whole entry): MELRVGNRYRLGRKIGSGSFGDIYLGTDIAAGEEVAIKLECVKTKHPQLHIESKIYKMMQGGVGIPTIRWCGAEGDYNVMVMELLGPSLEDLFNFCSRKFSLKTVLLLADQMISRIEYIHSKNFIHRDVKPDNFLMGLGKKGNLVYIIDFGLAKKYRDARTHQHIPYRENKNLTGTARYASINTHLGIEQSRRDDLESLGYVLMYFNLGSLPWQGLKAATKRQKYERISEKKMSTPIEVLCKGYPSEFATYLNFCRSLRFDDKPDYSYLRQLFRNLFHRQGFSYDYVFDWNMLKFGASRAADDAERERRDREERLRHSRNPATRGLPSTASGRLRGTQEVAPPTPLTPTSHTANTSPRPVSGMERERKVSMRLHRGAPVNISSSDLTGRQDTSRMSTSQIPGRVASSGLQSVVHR
c-RAF(h), sequence (P04049 whole entry): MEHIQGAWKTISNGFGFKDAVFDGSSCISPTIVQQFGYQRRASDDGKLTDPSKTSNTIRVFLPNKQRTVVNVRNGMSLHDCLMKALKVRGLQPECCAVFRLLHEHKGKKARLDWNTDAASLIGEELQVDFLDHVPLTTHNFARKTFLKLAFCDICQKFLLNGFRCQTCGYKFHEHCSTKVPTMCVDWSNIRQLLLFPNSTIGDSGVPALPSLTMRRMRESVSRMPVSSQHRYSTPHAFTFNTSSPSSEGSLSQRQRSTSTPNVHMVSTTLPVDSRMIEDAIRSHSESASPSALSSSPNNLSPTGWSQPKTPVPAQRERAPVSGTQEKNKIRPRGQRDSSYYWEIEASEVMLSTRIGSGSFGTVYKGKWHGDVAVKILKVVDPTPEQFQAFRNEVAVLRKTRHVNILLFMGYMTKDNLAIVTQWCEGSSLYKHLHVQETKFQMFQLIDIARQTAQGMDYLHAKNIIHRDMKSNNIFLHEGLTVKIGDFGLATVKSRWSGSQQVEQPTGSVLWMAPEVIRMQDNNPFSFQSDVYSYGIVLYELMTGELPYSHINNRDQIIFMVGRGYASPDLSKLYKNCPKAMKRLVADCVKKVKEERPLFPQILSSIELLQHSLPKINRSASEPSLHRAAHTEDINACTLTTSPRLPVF

Nc1n[nH]c2ccc(-c3ccnc4[nH]c(-c5ccccc5)cc34)cc12 [Compound 4]
inhibition at 1 µM [1]: 83% | inhibition at 1 µM [2]: 99% | inhibition at 1 µM [3]: 101% | inhibition at 1 µM [4]: 82% | inhibition at 1 µM [5]: 58% | inhibition at 1 µM [6]: 88% | inhibition at 1 µM [7]: 80% | inhibition at 1 µM [8]: 61% | inhibition at 1 µM [9]: 97% | inhibition at 1 µM [10]: 85% | inhibition at 1 µM [11]: 15% | inhibition at 1 µM [12]: 29%

Nc1n[nH]c2ccc(-c3ccnc4[nH]c(-c5cccc(OCc6ccccc6)c5)cc34)cc12 [Compound 5r [SU1261]]
inhibition at 1 µM [1]: 41% | inhibition at 1 µM [2]: 92% | inhibition at 1 µM [3]: 96% | inhibition at 1 µM [4]: 17% | inhibition at 1 µM [5]: 14% | inhibition at 1 µM [6]: 73% | inhibition at 1 µM [7]: 99% | inhibition at 1 µM [8]: 14% | inhibition at 1 µM [9]: 91% | inhibition at 1 µM [10]: 56% | inhibition at 1 µM [11]: -10% | inhibition at 1 µM [12]: 20%

Nc1n[nH]c2ccc(-c3ccnc4[nH]c(-c5ccnc(OCc6ccccc6)c5)cc34)cc12 [Compound 6g [SU1349]]
inhibition at 1 µM [1]: 17% | inhibition at 1 µM [2]: 71% | inhibition at 1 µM [3]: 90% | inhibition at 1 µM [4]: -13% | inhibition at 1 µM [5]: 5% | inhibition at 1 µM [6]: 35% | inhibition at 1 µM [7]: 11% | inhibition at 1 µM [8]: -3% | inhibition at 1 µM [9]: 44% | inhibition at 1 µM [10]: 19% | inhibition at 1 µM [11]: 22% | inhibition at 1 µM [12]: 2%
